Data taken from patent publication US20230066156A1, “6-SUBSTITUTED, 22-CYANO HYODEOXYCHOLANIC ANALOGUES AND USES THEREOF” (PRECISION BIO-THERAPEUTICS S.R.L., priority 2019, published 2023).

System: THP1 cells
Assay: Relative mRNA expression of pro- and anti-inflammatory genes by Real-Time PCR in LPS-activated THP1 cells
Type: cell-based, human
Settings: 10 μM, normalized to GAPDH, FIG. 1
Protocol: THP-1, a human monocytic cell line derived from an acute monocytic leukemia patient, were cultured and maintained at 37° C. and 5% CO2 in RPMI with 10% FBS, 1% glutamine and 1% penicillin/streptomycin. THP1 cells (1.5×10^6) were serum starved for 6 h and then classically activated with LPS (1 ng/ml, L2880; Sigma-Aldrich), and exposed or not to GPBAR1 agonists previously tested in transactivation assay.
Furthermore, selected compounds exert in vitro activity on GPBAR1-target genes reducing the production of pro-inflammatory cytokines (IL-6, TNF-α, IL-1β, […]) in THP1 monocytic/macrophage cells primed with LPS and co-incubated with or without the selected compounds at 10 μM (FIG. 1).
Values are normalized relative to GAPDH mRNA and are expressed as mean±SEM (n=3); #p<0.05.
Colon samples were immediately frozen in liquid nitrogen and stored at −80° C. until used, mechanically homogenated with the aid of a pestle, and the obtained materials re-suspended in 1 ml of Trizol (Thermo Scientific™). THP1 cells were spin-dried at 1300 rpm and then the pellets were re-suspended in 1 ml of Trizol (Thermo Scientific™). The RNA was extracted according to the manufacturer's protocol. After purification from genomic DNA by DNase-I treatment (Thermo Scientific™), 1 μg of RNA from each sample was reverse-transcribed using random hexamer primers with Superscript-II (Thermo Scientific™) in a 20 μL reaction volume; 10 ng cDNA were amplified in a 20 μL solution containing 200 nM of each primer and 10 μL of SYBR Select Master Mix (Thermo Scientific™). All reactions were performed in triplicate, and the thermal cycling conditions were as follows: 3 min at 95° C., followed by 40 cycles of 95° C. for 15 s, 56° C. for 20 s and 72° C. for 30 s, using a Step One Plus machine (Applied Biosystem). The relative mRNA expression was calculated accordingly to the 2^(−ΔCt) method comparing the expression of different genes to that of GAPDH housekeeping. Primers were designed using the software PRIMER3 (http://frodo.wi.mit.edu/primer3/) using published data obtained from the NCBI database. The primer used for murine samples were conducted as follows (forward and reverse): Gapdh (for […] (SEQ ID: 1); rev […] (SEQ ID: 2)), Tnf-α (for […] (SEQ ID: 3); rev […] (SEQ ID: 4)), Il-6 (for […] (SEQ ID: 5); rev […] (SEQ ID: 6)), Il-1β (for […] (SEQ ID: 7); rev […] (SEQ ID: 8)), Il-10 (for […] (SEQ ID: 9); rev […] (SEQ ID: 10)), Gpbar1 (for […] (SEQ ID: 11); rev […] (SEQ ID: 12)). […]

## CC[C@]1(O)C[C@H]2[C@@H]3CC[C@H]([C@H](C)CC#N)[C@@]3(C)CC[C@@H]2[C@@]2(C)CC[C@@H](O)C[C@@H]12 [PBT110B, 3α,6α-dihydroxy-6β-ethyl-24-nor-5β-cholan-23-nitrile]
  IL1-β production (relative mRNA expression): significantly reduced
  IL-6 production (relative mRNA expression): significantly reduced
  TNF-α production (relative mRNA expression): significantly reduced
  expression of anti-inflammatory gene IL-10: increased
